Measured values as given in PubChem BioAssay AID1996.
Values after ≈ are worked out from the molar mass of the structure shown.

conditions: buffer; pH 7.4; 200.0 µM

Row | Compound | solubility kinetic [mg/mL]
1 | N=c1oc2ccccc2cc1C(=O)Nc1cccc(F)c1 | 0.0003 (≈ 1.06 µM)
2 | Cc1csc(NC(=O)CS(=O)(=O)c2ccccc2)n1 | 0.0443 (≈ 149 µM)
3 | O=C(NC(=S)Nc1ccc(Cl)cc1)c1cncc(Br)c1 | 0.0034 (≈ 9.17 µM)
4 | Cn1c(N)c(C(=O)CSc2nnc(N)s2)c(=O)n(C)c1=O | > 0.0493
5 | Clc1ccc(Cn2cnc3ccccc32)cc1 | 0.027 (≈ 111 µM)
6 | Cc1cc([N+](=O)[O-])nn1CCCC(=O)NC1CCCCC1 | > 0.0442
7 | CCC(C)Nc1nc(N)c([N+](=O)[O-])c(NCc2ccccc2)n1 (centres undefined) | 0.0036 (≈ 11.4 µM)
8 | CN1N=C(C(=O)Nc2ccc3c(c2)CCC3)CCC1=O | > 0.0407
9 | COc1ccc(CNC(=O)CSc2nccn(-c3ccc(F)c(F)c3)c2=O)cc1 | 0.0124 (≈ 29.7 µM)
10 | Cc1ccccc1NC(=O)C(Cc1ccccc1)n1cccc1 (centres undefined) | 0.0074 (≈ 24.3 µM)
11 | COc1ccc(CNC(=O)c2nccnc2CO)cc1 | > 0.041
12 | CNc1oc(/C=C/c2cccc(OC)c2)nc1C#N | 0.0037 (≈ 14.5 µM)
13 | Clc1ccc2c(c1)CCc1cccnc1C2=C1CCNCC1 | 0.0216 (≈ 69.5 µM)
14 | O=C(NCCCNC(=O)c1ccccc1)c1ccccc1 | > 0.0424
15 | O=C(c1cc(N2CCOCC2)c(F)cc1[N+](=O)[O-])N1CCOCC1 | 0.048 (≈ 141 µM)
16 | CCNC(=O)COC(=O)c1cccc(Br)c1 | 0.0408 (≈ 143 µM)
17 | Cc1cnc(NC(=O)c2cc(S(=O)(=O)N(C)C)ccc2N2CCCC2)s1 | 0.0047 (≈ 11.9 µM)
18 | Cc1sc(NC(=O)Nc2ccccc2)c(C(N)=O)c1C | 0.0051 (≈ 17.6 µM)
19 | COc1cccc(-c2cc(C(=O)NCC3CCCO3)c3cc(Br)cc(C)c3n2)c1 (centres undefined) | < 0.0005
20 | CC(C)(CNCc1ccccc1)NS(=O)(=O)c1ccccc1 | > 0.0478
21 | COc1ccccc1C(=O)NCCOc1ccc(C(C)(C)C)cc1 | 0.0027 (≈ 8.25 µM)
22 | CCCc1ccc(C(=O)O/N=C(\N)c2ccccn2)cc1 | 0.0031 (≈ 10.9 µM)
23 | CCn1c(C)nnc1SCC(=O)Nc1ccc(C(C)=O)cc1 | > 0.0478
24 | Cc1ccc(-c2c[n+](CC(=O)Nc3ccc(C)cc3C)c3n2CCC3)cc1.[Cl-] | > 0.0594

Row | Compound | solubility kinetic [mg/mL]
25 | Brc1ccc(OCc2cn3ccccc3n2)cc1 | 0.0053 (≈ 17.5 µM)
26 | O=C(Cn1c(=O)oc2ccccc21)Nc1ccc(Cl)cc1 | 0.0018 (≈ 5.95 µM)
27 | Cc1onc(-c2ccccc2)c1C(=O)N(Cc1ccccn1)Cc1ccccn1 | > 0.0577
28 | CCN(CC)C(=S)SC1CCCCN(C(=O)c2ccc(F)cc2)C1=O (centres undefined) | 0.0052 (≈ 13.6 µM)
29 | CCOC(=O)C1=C(O)C(=O)N(Cc2ccccc2)C1 | > 0.0392
30 | CCCCNC(=O)N(C)c1nc2ccccc2s1 | 0.0288 (≈ 109 µM)
31 | Cc1ccc(-c2nc3ccc(Cl)cc3c(=O)n2O)cc1 | 0.0422 (≈ 147 µM)
32 | Cc1occc1C(=O)Nc1ccccc1C#N | > 0.0339
33 | O=C(O)c1cncc(C#CCC2CCCCC2)c1 | 0.0348 (≈ 143 µM)
34 | Cc1ccc(/C=C2/C(=O)NC(=O)N(Cc3ccc(F)cc3)C2=O)o1 | 0.0114 (≈ 34.7 µM)
35 | C#CCNC(=O)c1ccc(OCc2ccccc2)cc1Cl | 0.0417 (≈ 139 µM)
36 | O=C(COC(=O)CNC(=O)c1ccccc1F)Nc1ccc(Cl)cn1 | 0.0222 (≈ 60.7 µM)
37 | CCOC(=O)Nc1cccc(NC(=O)c2ccccc2F)c1 | > 0.0453
38 | Cc1cccc(C(=O)N[C@@H](C)C(=O)N2CCN(c3ncccn3)CC2)c1 | > 0.053
39 | COC(=O)c1ccc(NC(=O)c2cccnc2)cc1 | > 0.0384
40 | CS(=O)(=O)c1ccc2nc(NC(=O)C3CCCO3)sc2c1 (centres undefined) | 0.0438 (≈ 134 µM)
41 | CC(=O)c1ccc(NC(=S)NCc2cccnc2)cc1 | > 0.0428
42 | O=C(COc1ccc(Br)cc1)N1CCc2ccccc2C1 | 0.0208 (≈ 60.1 µM)
43 | O=C(CSc1nnc(Nc2ccccc2)s1)NC1CCS(=O)(=O)C1 (centres undefined) | > 0.0577
44 | COc1ccc(N2C(=O)NC(=O)C2=O)cc1 | > 0.033
45 | O=C(CC1CCCC1)N1CCN(S(=O)(=O)c2ccccc2)CC1 | > 0.0505
46 | O=C(CSc1ccc([N+](=O)[O-])cc1)Nc1ccccc1N1CCOCC1 | 0.0049 (≈ 13.1 µM)
47 | O=C(NCc1ccccn1)Nc1ccc(Cl)cc1Cl | 0.0092 (≈ 31.1 µM)
48 | CC(=O)N1c2ccccc2CCc2ccc([N+](=O)[O-])cc21 | > 0.0423

Row | Compound | solubility kinetic [mg/mL]
49 | Cc1cc(C)cc(NC(=O)NCC(O)COc2ccc([N+](=O)[O-])cc2)c1 (centres undefined) | 0.0061 (≈ 17 µM)
50 | O=C(CNC(=O)c1ccco1)OCC(=O)c1ccc([N+](=O)[O-])cc1 | > 0.0498
51 | CC(C)CC(N=Cc1c(O)c2ccccc2oc1=O)C(=O)O (centres undefined) | > 0.0455
52 | Cc1ccc(NC(=O)C2CC(O)CN2C(=O)OCc2ccccc2)cc1C (centres undefined) | 0.0488 (≈ 132 µM)
53 | N#CCCN(C(=O)COC(=O)/C=C/c1cccs1)c1ccccc1 | 0.0099 (≈ 29.1 µM)
54 | CS(=O)(=O)Nc1ccccc1C(=O)NCCSc1ccc(Cl)cc1 | 0.0338 (≈ 87.8 µM)
55 | CCOC(=O)C1CCCN(C/C=C/c2ccccc2)C1 (centres undefined) | 0.0205 (≈ 75 µM)
56 | O=C(Nc1cc(S(=O)(=O)N2CCOCC2)ccc1N1CCOCC1)c1c(F)cccc1Cl | 0.0022 (≈ 4.55 µM)
57 | O=C(C1CCCN(S(=O)(=O)c2ccccc2)C1)N1CCCCC1 (centres undefined) | 0.0504 (≈ 150 µM)
58 | Cc1ccc(C(=O)NCCN2CCN(C(=O)c3ccc(C)c(C)c3)CC2)cc1C | 0.0531 (≈ 135 µM)
59 | CC1CCCCC1NC(=O)COC(=O)COc1ccccc1F (centres undefined) | 0.0353 (≈ 109 µM)
60 | Cc1cc(C)c2nc(NC(=O)c3ccc([N+](=O)[O-])o3)sc2c1 | < 0.0002
61 | COc1cccc(NC(=O)CCN2C(=O)c3cccc([N+](=O)[O-])c3C2=O)c1 | > 0.0554
62 | Cc1ccnc(NC(=O)c2cnc(Cl)c(Cl)c2)c1 | 0.0064 (≈ 22.7 µM)
63 | CN(C)C(=O)CS(=O)(=O)c1ccc(Cl)cc1 | 0.0327 (≈ 125 µM)
64 | N/C(=N\OC(=O)c1ccc(Br)o1)c1cccnc1 | 0.0391 (≈ 126 µM)
65 | COc1ccc(Cl)cc1NC(=O)CN(C)C(=O)c1cccc(S(=O)(=O)N2CCN(C)CC2)c1 | 0.0674 (≈ 136 µM)
66 | O=C(C1CC(=O)N(c2ccccc2F)C1)N1CCOCC1 (centres undefined) | > 0.0438
67 | CCN(Cc1ccccc1)C(=O)c1ccc(SC)cc1OC | 0.0458 (≈ 145 µM)
68 | O=C(Nc1ncccn1)C1CCCCC1 | > 0.0308
69 | Cc1ccsc1C(=O)OCC(=O)NCc1ccccc1 | 0.0109 (≈ 37.7 µM)
70 | Cc1ccc(C(=O)Nc2ccc(C(F)(F)F)n(C)c2=O)cc1 | 0.0021 (≈ 6.77 µM)
71 | N/C(=N\OC(=O)c1cccc2ccccc12)c1ccncc1 | 0.0313 (≈ 107 µM)
72 | O=C(COC(=O)C12CC3CC(CC(O)(C3)C1)C2)Nc1ccc(Cl)c(S(=O)(=O)N2CCOCC2)c1 | > 0.077

Row | Compound | solubility kinetic [mg/mL]
73 | O=[N+]([O-])c1ccc(Cl)c(CN2CCCCCC2)c1 | 0.0138 (≈ 51.3 µM)
74 | COc1ccc(N2C(=O)CSC2c2ccccc2)cc1 (centres undefined) | 0.0423 (≈ 148 µM)
75 | CCOP(=O)(OCC)C(O)c1cccnc1 (centres undefined) | > 0.0368
76 | COc1ccc(-n2cc([N+](=O)[O-])c(=O)c3ccc(Cl)cc32)cc1 | 0.0007 (≈ 2.12 µM)
77 | CN1CCC(N(C)C(=O)COc2ccccc2Cl)CC1 | > 0.0445
78 | Cc1cccn2c(=O)c3cc(C(=O)NCC(C)C)sc3nc12 | 0.0012 (≈ 3.8 µM)
79 | O=S(=O)(Cc1noc(-c2ccc(OC(F)(F)F)cc2)n1)c1ccc(F)cc1 | < 0.0004
80 | COC(=O)C/C(N)=C(\C#N)C(=O)OC | > 0.0297
81 | CN(C/C=C/c1ccccc1[N+](=O)[O-])Cc1ccccc1 | 0.0192 (≈ 68 µM)
82 | CN1CC(=O)Nc2ccc(Br)cc2C1=O | > 0.0404
83 | c1ccc2c(OCCCCN3CCCC3)cccc2c1 | 0.0401 (≈ 149 µM)
84 | O=C(CCSc1ccc(Cl)cc1)NC1CCCC1 | 0.0323 (≈ 114 µM)
85 | Cc1c(-c2ccc(Cl)cc2)[n+](=O)c(-c2ccccc2)cn1[O-] | > 0.0469
86 | S=C(NCc1ccccc1)N1CCN(c2ccccc2)CC1 | 0.0005 (≈ 1.61 µM)
87 | CCC(=O)c1c[nH]c(C(=O)NCc2ccccc2OC)c1 | 0.0028 (≈ 9.78 µM)
88 | CC(=O)Nc1ccc2c3c(cccc13)C(=O)N(c1ccccc1)C2=O | 0.0023 (≈ 6.96 µM)
89 | COc1cccc(Nc2nc(-c3ccccc3)nc3ccccc23)c1 | 0.0032 (≈ 9.77 µM)
90 | CC1CCCC(C)N1C(=O)COC(=O)/C=C/c1ccco1 (centres undefined) | 0.01 (≈ 34.3 µM)
91 | O=C(N1CCCC1)C12CC3CC(CC(Cl)(C3)C1)C2 | 0.0379 (≈ 142 µM)
92 | Cc1ccc(NC(=O)CN2CCc3ccccc3C2)cc1C | 0.0188 (≈ 63.9 µM)
93 | Cc1ccc(S(=O)(=O)N2CCCCC2)cc1C(=O)OCC(=O)N1c2ccccc2NC(=O)C1(C)C | 0.0032 (≈ 6.41 µM)
94 | CN(C)c1ccc(C=NCC2COc3ccccc3O2)cc1 (centres undefined) | > 0.0445
95 | O=C(c1cc2cc(Cl)ccc2[nH]1)N1CCCCC1 | 0.002 (≈ 7.61 µM)
96 | O=C(CCCCC(=O)Nc1ccccc1)Nc1ccccc1 | 0.0031 (≈ 10.5 µM)

Row | Compound | solubility kinetic [mg/mL]
97 | CC(NC(=O)c1cc2ccccc2oc1=O)c1ccc(O)cc1 (centres undefined) | 0.0273 (≈ 88.3 µM)
98 | CCc1ccc(C(=O)Nc2ccc3c(c2)n(C)c(=O)n3C)cc1 | 0.0056 (≈ 18.1 µM)
99 | CC(C)C(=O)O/N=C1\CCS(=O)(=O)c2sccc21 | > 0.0431
100 | Cc1ccc(-c2ocnc2C(=O)N2CCOCC2)cc1 | > 0.0408
101 | O=C(O)c1ccccc1Nc1cccc(C(F)(F)F)c1 | > 0.0422
102 | CCOc1cc(C=O)ccc1OCc1cc(=O)n2cc(C)ccc2n1 | 0.0044 (≈ 13 µM)
103 | O=C(Cc1ccccc1)Nc1ccccc1C(=O)N1CCCCC1 | > 0.0484
104 | Cc1ccc(N=C2C(=O)Nc3ccccc32)cc1C | 0.024 (≈ 95.9 µM)
105 | Cc1cccc(NC(=S)NCCc2ccccn2)c1 | > 0.0407
106 | Cc1ccc(C)c(C(C)NC(=O)C2CC=CCC2C(=O)O)c1 (centres undefined) | > 0.0452
107 | CCCCN1C(=O)N(C)C2NC(=S)NC21 (centres undefined) | > 0.0342
108 | Cc1ccc(C)c(C(=O)Nc2ccncc2)c1 | > 0.0339
109 | O=C(NCCN1CCOCC1)c1cc(Cl)ccc1Cl | 0.041 (≈ 135 µM)
110 | O=C(NCCNC(=O)c1ccc(Cl)cc1Cl)c1ccccn1 | 0.0434 (≈ 128 µM)
111 | CC(C(=O)N1CCOCC1)n1cc([N+](=O)[O-])cn1 (centres undefined) | > 0.0381
112 | COc1cc(C(=O)Nc2ccncc2)c([N+](=O)[O-])cc1OC | > 0.0455
113 | O=C(CSC(=S)N1CCSCC1)c1ccc(Cl)cc1 | < 0.0007
114 | Cc1ccc(OCc2nc(-c3cccs3)no2)c([N+](=O)[O-])c1 | 0.0009 (≈ 2.84 µM)
115 | CC(C)[C@H](Nc1ncnc2c1oc1ccccc12)C(=O)O | > 0.0428
116 | COc1ccc(N/C(=N/c2nc(C)cc(C)n2)NC(=O)c2ccccc2)cc1 | 0.0003 (≈ 0.799 µM)
117 | COc1cccc(C(=O)NCC2(c3ccccc3)CCCC2)c1 | 0.0284 (≈ 91.8 µM)
118 | O=[N+]([O-])c1cccnc1SCc1c(F)cccc1Cl | < 0.0003
119 | CCN(C(=O)COC(=O)c1ccc(Cl)cc1N)C1CCCCC1 | 0.0027 (≈ 7.97 µM)
